Data: patent US5912259A, “Method for treating and preventing neurodegenerative disorders by administering a thiazolidinone” (Warner-Lambert Company, priority 1998, dated 1999)
Where two headings read alike, the source gives them in different places.

How the values were obtained:
[1] = tested on: inducible nitric oxide synthase (iNOS), BV-2 microglia; assay: Nitric oxide production in LPS-activated BV-2 microglia (Griess reaction); assay type: cell-based; details: Mus musculus, LPS 4 μg/mL, 16 hours, read-out: IC50, inhibition of nitric oxide production
Procedure: (§1) BV-2 microglia were grown in 6-well tissue culture plates in DMEM/F12 media supplemented with 10% fetal calf serum. Prior to activation, cells were given fresh media containing various amounts of thiazolidinone. One hour after drug treatment, microglia were activated with lipopolysaccharide (LPS, 4 μg/mL) and placed in an incubator at 37° C. in an atmosphere containing 5% CO2. After 16 hours, cultures were evaluated for inducible nitric oxide synthase (iNOS) activity and expression. iNOS activity was determined using the Griess reaction. Cell-free culture media was mixed with an equal volume of Griess reagent (one volume of 1.0% sulfanilamide in 5% phosphoric acid mixed with one volume of 0.1% naphthylenediamine dihydrochloride in water) and incubated for 5 minutes at room temperature. Absorbance was measured at 560 nm and the concentration within a sample was determined using sodium nitrite as standard. iNOS expression was evaluated by extracting cellular protein and performing Western blot analysis using a monoclonal antibody specific for iNOS.

[2] = tested on: experimental autoimmune encephalomyelitis (EAE)
Procedure: The thiazolidinone was evaluated in a mouse model of experimental autoimmune encephalomyelitis (EAE). The compound was administered orally to mice sensitized with a fragment of mouse myelin basic protein to induce EAE. Two experiments were conducted using the same protocol and neurological evaluations. Test animals were dosed for 21 days, beginning 4 hours before sensitization on Day 1. The effects of the thiazolidinone were compared to a control group of mice sensitized identically and dosed with vehicle alone. Neurological evaluations continued after cessation of drug treatment. The values reported in Tables 1 and 2 below include responses during drug treatment only.
The thiazolidinone was homogenized manually with an aliquot of warm vehicle (0.5% hydroxypropyl methylcellulose with 0.2% Tween 80in water) in glass mortar tubes and homogenizing pestle. The smooth drug paste was gradually suspended in vehicle. Mice were dosed with drug and/or vehicle, […] in groups of ten (Experiment 1) or twenty (Experiment 2). Mice were dosed from Experiment Day 1 to Day 21. A sham-sensitized group was similarly dosed with vehicle or thiazolidinone 30 mg/kg (Experiment 1).
Female mice, strain PL/J(F1)×SJL/J from Jackson Labs, were sensitized s.c. (0.05 cc×2) at the base of the tail with an emulsion containing equal parts of mouse myelin basic protein (MBP) fragment (amino acids 1-9 of the N-terminus of MBP) in saline and Difco Complete Freund's Adjuvant (CFA) fortified with heat killed desiccated Mycobacteria tuberculosis (MT). Each mouse received 300 μg of the MBP fragment (230 μg free base) and 200 μg MT followed by retrobulbar (i.v.) injection of 200 ng of B. pertussis toxin in 0.2 cc of saline. Forty-eight hours later, mice received a second injection of B. pertussis toxin. Mice in Experiment 1 were 8 to 9 weeks old; mice in Experiment 2 were 11 weeks old.
Animals were weighed and evaluated for symptoms of EAE before sensitization and frequently for 21 days. EAE score: (0.5=slight limp tail, 1=limp tail or slow to right, 1.5=slight limp tail and slow to right, 2=paresis/mild paralysis or incontinence, 2.5=mild paralysis and slow to right or complete paralysis (one hind limb), 3=hind limb paralysis (both), 3.5=hind limb paralysis (both) and limp torso; 4=additional fore limb paralysis, 4.5=head movement only, 5=moribund, death after previous EAE symptoms). Evaluators were blinded as to drug treatments and previous behavioral scores.
Disease symptoms were compared among groups for EAE severity, incidence, time to onset, cumulative score, deaths, and weight loss. Peak EAE score: the mean of highest score of each mouse in a group, independent of duration of symptoms; EAE incidence: the mean number of mice showing symptoms of EAE, defined as having EAE scores on any three consecutive days that total≥3.0. EAE deaths: An animal that died must have presented previous evidence of an EAE score greater than 0.5; EAE onset: the first of a 3-day series scoring a total of≥3.0. A Cumulative EAE score is calculated for each animal. A mean of all animals' cumulative score is then determined for each day. Maximum weight loss: the mean of the lowest weight for each animal in a group. (Note: The Cumulative EAE score and the Maximum weight loss can be influenced by death which eliminates severely diseased animals. The number of days that animals are scored also affects the cumulative score and can only be compared "within-trial"). Mice that die from dosing trauma or with no previous symptoms of EAE are deleted from the study. Experimental groups were assumed to be similar and were compared for statistical significance by a two-tailed t-test (p≤0.05).

[3] = tested on: nitric oxide synthase, mixed cortical cultures; assay: Nitric oxide synthase activity / NO production in mixed cortical cultures; assay type: cell-based, fetal Sprague-Dawley rat
Procedure: as §1
Experiments using mixed cortical cultures were performed as described above. […]
Cerebral ischemia can be modeled in vitro by lowering oxygen and glucose in the media of cortical neurons. […] Cultures were read every 2 to 3 days thereafter by half volume (100 μL) replacement with DME/F12 (10% horse serum).

[4] = sensitized, 30 mg oral, (a) deaths designated due to EAE
[5] = sensitized, 30 mg oral, (b) deaths due to unknown causes removed

Structure (SMILES): CC(C)(C)c1cc(/C=C2\SC(N)=NC2=O)cc(C(C)(C)C)c1O [CI-1004, (Z)-5-[[3,5-bis(1,1-dimethylethyl)-4-hydroxyphenyl]methylene]-2-imino-4-thiazolidinone methanesulfonate]
- IC50 [1]: 2400 nM
- deaths at ≤Day 10 ([2]; mouse, in vivo, 30 mg/kg): three deaths
- Cumulative Score ([2]; sensitized, 3 mg oral): 20.3 ± 1.7
- Deaths ([2]; sensitized, 3 mg oral): 2/10
- EAE Incidence ([2]; sensitized, 3 mg oral): 10/10
- EAE Onset ([2]; sensitized, 3 mg oral): 12.2 ± 0.3 days
- EAE Peak Score ([2]; sensitized, 3 mg oral): 3.7 ± 0.3
- Cumulative Score ([2]; sensitized, 10 mg oral): 10.9 ± 1.7
- Deaths ([2]; sensitized, 10 mg oral): 2/10
- EAE Incidence ([2]; sensitized, 10 mg oral): 7/10
- EAE Onset ([2]; sensitized, 10 mg oral): 12.1 ± 1.5 days
- EAE Peak Score ([2]; sensitized, 10 mg oral): 3.0 ± 0.6
- daily EAE scores, incidence, cumulative EAE scores, weight loss ([2]; sensitized, 10 mg/kg): showed a suggestion of inhibition of daily EAE scores, reduced incidence, cumulative EAE scores, and weight loss
- Cumulative Score [2, 4]: 10.9 ± 3.4
- Deaths [2, 4]: 3/9
- EAE Incidence [2, 4]: 7/9
- EAE Onset [2, 4]: 12.7 ± 2.2 days
- EAE Peak Score [2, 4]: 3.1 ± 0.6
- Cumulative Score [2, 5]: 9.4 ± 3.4
- Deaths [2, 5]: 0/6
- EAE Incidence [2, 5]: 4/6
- EAE Onset [2, 5]: 16.0 ± 2.1 days
- EAE Peak Score ([2]; sensitized, 30 mg oral, (b) deaths due to unknown causes removed, p < 0.05): 2.1 ± 0.6
- overall EAE symptoms ([2]; sensitized, 30 mg/kg, Method A): no significant reduction in overall EAE symptoms
- peak EAE score and weight loss ([2]; sensitized, 30 mg/kg, Method B): significant reduction in the peak EAE score and weight loss
- daily EAE scores Days 10 to 21 ([2]; sensitized, 30 mg/kg, Methods A and B): tendency to reduced daily EAE scores from Days 10 to 21, although a statistically significant reduction was seen only on Day 15 (p≤0.05)
- EAE scores versus vehicle controls to Day 21 ([2]; sensitized, 3 or 10 mg/kg): did not show significantly reduced EAE scores
- Cumulative Score ([2]; sham-sensitized, 30 mg oral): 1.4 ± 0.6
- Deaths ([2]; sham-sensitized, 30 mg oral): 0/9
- EAE Incidence ([2]; sham-sensitized, 30 mg oral): 0/9
- EAE Peak Score ([2]; sham-sensitized, 30 mg oral): 0.8 ± 0
- EAE symptoms and deaths in sham-sensitized mice ([2]; sham-sensitized, 30 mg/kg): showed little symptoms of disease and no deaths
- increase in nitric oxide synthase activity on LPS activation ([3]; 10 μM, LPS-activated): prevented the increase in nitric oxide synthase activity
- basal NO production ([3]; non-LPS activated cultures): significant decrease in basal NO production
